Data reported in patent US20250115598A1 (Anaxis Pharma Pty Ltd, priority 2021, published 2025).
pIC50, pKd: −log10 of the molar value.

Columns and labels:
human MLKL (full length) = human MLKL (full length) (Homo sapiens (Human), UniProt Q8NB16); experiment: KINOMEscan binding assay, human MLKL (full length); settings: hMLKL, Table 25; read-out: MLKL (KD)
Outline: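 Compound dilutions (11 points, 3-fold, mostly from 30,000 nM, 1% DMSO final) competed with immobilized ligand for DNA- or phage-tagged protein, and bead-bound protein was measured by qPCR. Kd values came from Hill-equation fits with slope −1 (Levenberg-Marquardt).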

endogenous MLKL in U937 = endogenous MLKL in U937 (Homo sapiens (Human), UniProt Q8NB16); experiment: Degradation assay: endogenous MLKL in U937 (western blot); settings: U937, 24 h incubation, read-out: Degradation of endogenous MLKL in U937 (DC50 cell-based assay)
Chain of endogenous MLKL in U937 (Q8NB16 whole entry): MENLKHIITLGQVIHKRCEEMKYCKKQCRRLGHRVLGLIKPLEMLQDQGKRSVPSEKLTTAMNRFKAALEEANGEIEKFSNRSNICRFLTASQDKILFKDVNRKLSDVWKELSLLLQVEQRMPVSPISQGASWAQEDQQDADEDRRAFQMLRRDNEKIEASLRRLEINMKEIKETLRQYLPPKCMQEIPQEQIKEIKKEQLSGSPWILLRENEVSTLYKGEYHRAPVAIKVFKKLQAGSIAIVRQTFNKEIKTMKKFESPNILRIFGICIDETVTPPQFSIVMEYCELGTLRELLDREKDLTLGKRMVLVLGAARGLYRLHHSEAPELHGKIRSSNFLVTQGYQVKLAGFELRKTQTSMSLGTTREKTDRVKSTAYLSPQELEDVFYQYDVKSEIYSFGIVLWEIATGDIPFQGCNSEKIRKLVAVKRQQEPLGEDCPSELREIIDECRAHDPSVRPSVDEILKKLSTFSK
Experimental: Degradation Assay: Screening Compounds Procedure to Evaluate the Activity of Compounds in Degrading Endogenous MLKL in Human and Mouse Cell
The mouse dermal fibroblast (MDF) cell line was seeded the day before the experiment in a 24-well plate at a cell density of […] per well in a volume of 0.5 mL per well and left to attach overnight. The human monocyte cell line (U937) was seeded on the day of the experiment in a 24-well plate at a cell density of […] per well in a volume of 0.5 mL per well.
The compound was diluted in DMSO with a starting concentration of 10 mM and titrated stepwise with a dilution of 1:5. 0.5 μL of the compound dilution was added to the appropriate well to achieve a final concentration of 10; 2; 0.4; 0.08 and 0.016 μM. A DMSO only well was included as control.
The cells were incubated for 24 h in the presence of the compound at 37° C. and 10% CO2.
After the 24 h incubation period, the medium was removed and cells washed with 0.5 mL PBS. The cells were then lysed directly in 60 μL of 1×SDS gel loading buffer.
The cell lysate was heat-denatured at […] for 10 min. 10 μL of lysate per well were run on 18-well 4-15% Criterion TGX stain free gels (BIO-RAD). The proteins were then transferred onto nitrocellulose membrane with a wet transfer protocol in the Criterion Blotter (BIO-RAD).
Membranes were blocked with 5% skim milk in TBST. Primary antibody against MLKL (clone 3H1, MABC604 Merck) was used at 1:2000 dilution in TBST with 1% BSA and left shaking over night at 4° C. After washes with TBST, the membranes were incubated with goat anti-rat IgG HRP-conjugated antibody (Southern Biotech) in 1% skim milk TBST at 1:10000 dilution for 1 h at room temperature. After TBST washes the bands were imaged on the ChemiDoc MP Imaging System (BIO-RAD) with Immobilion Western Chemiluminescent HRP Substrate Forte (Millipore). The loading control GAPDH was probed for with rabbit anti-GAPDH (CST 14C10) at 1:2000 dilution in 1% BSA TBST over night at 4° C. TBST washes were followed by incubation with goat anti-rabbit IgG HRP-conjugated antibody (Southern Biotech) in 1% skim milk TBST at 1:10000 dilution for 1 h at room temperature followed by TBST washes. The signal was detected as described above.
The band intensity was measured in the ImageLab Software (BIO-RAD) and the MLKL values adjusted for loading with GAPDH. The percentage of degradation was calculated by normalizing the compound treated values to the DMSO only control.

endogenous MLKL in MDF = endogenous MLKL in MDF (Mus musculus (Mouse), UniProt Q9D2Y4); experiment: Degradation assay: endogenous MLKL in MDF (western blot); settings: MDF cells, 24 h incubation with compound, MLKL adjusted for loading with GAPDH, normalized to DMSO only control, read-out: Degradation of endogenous MLKL in MDF (DC50 cell-based assay)
Chain of endogenous MLKL in MDF (Q9D2Y4 whole entry): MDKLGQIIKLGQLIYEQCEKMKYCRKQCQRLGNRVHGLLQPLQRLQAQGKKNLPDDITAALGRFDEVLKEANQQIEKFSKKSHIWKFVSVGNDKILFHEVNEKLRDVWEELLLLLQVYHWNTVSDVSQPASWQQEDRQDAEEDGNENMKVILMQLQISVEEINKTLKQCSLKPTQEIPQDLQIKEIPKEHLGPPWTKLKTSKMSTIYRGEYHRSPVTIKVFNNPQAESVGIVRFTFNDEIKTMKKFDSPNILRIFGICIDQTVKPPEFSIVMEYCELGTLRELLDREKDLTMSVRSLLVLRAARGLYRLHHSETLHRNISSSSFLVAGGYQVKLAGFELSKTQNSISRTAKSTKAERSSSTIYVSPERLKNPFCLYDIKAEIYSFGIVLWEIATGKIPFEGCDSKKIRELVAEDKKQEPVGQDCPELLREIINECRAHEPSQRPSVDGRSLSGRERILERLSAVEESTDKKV
Outline: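 Western blot band intensity of MLKL, adjusted to GAPDH loading and normalized to DMSO-only wells, gave percent degradation. Compound exposure lasted 24 h at final concentrations of 10–0.016 μM in 1:5 steps, in mouse dermal fibroblasts or human U937 cells.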

[1] = system: Immortalised Mouse Dermal Fibroblasts (MDFs); experiment: Cellular assay: inhibition of TSI induced necroptosis, CellTitre-Glo viability; settings: Mus musculus, Fibroblast; MDF, 3 hours TSI cocktail, Table 27; read-out: Inhibition of TSI-induced necroptosis (IC50 cell-based assay) in MDF
Outline: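 Necroptosis induced for 3 h with TSI: rhTNF 100 ng/ml, Smac mimetic 500 nM, caspase inhibitor IDN-6556 10 μM. Mouse dermal fibroblasts had received compound (36 μM top, ten three-fold steps) 30 min beforehand. ATP-based viability scaled between untreated and TSI-only wells; IC50 taken as 4-parameter curve inflection.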

Chain of human MLKL (full length) (Q8NB16 whole entry): as the sequence (Q8NB16 whole entry) above

pKd (human MLKL (full length))	DC50 (endogenous MLKL in U937) [µM]	DC50 (endogenous MLKL in MDF) [µM]	Compound	pIC50 [1]
> 8.00	1 to 10	–	Cc1ncsc1-c1ccc(CNC(=O)[C@@H]2C[C@@H](O)CN2C(=O)[C@@H](NC(=O)CCOCCCn2cc(-c3cnc(N)c4c(-c5ccc(NS(=O)(=O)C(F)F)c(O[C@@H](C)c6ccc(F)cc6)c5)nn(C)c34)cn2)C(C)(C)C)cc1 [Compound 1040, (2S,4R)-1-[(2S)-2-{3-[3-(4-{4-amino-3-[4-(difluoromethanesulfonamido)-3-[(1S)-1-(4-fluorophenyl)ethoxy]phenyl]-1-methyl-1H-pyrazolo[4,3-c]pyridin-7-yl}-1H-pyrazol-1-yl)propoxy]propanamido}-3,3-dimethylbutanoyl]-4-hydroxy-N-{[4-(4-methyl-1,3-thiazol-5-yl)phenyl]methyl}pyrrolidine-2-carboxamide]	–
6.00 to 8.00	1 to 10	< 1	Cc1ncsc1-c1ccc(CNC(=O)[C@@H]2C[C@@H](O)CN2C(=O)[C@@H](NC(=O)C2(F)CC2)C(C)(C)C)c(OCCCCCCCCCn2cc(-c3cnc(N)c4c(-c5ccc(NS(=O)(=O)C(F)F)c(O[C@@H](C)c6ccc(F)cc6)c5)nn(C)c34)cn2)c1 [Compound 1041, (2S,4R)-N-[(2-{[9-(4-{4-amino-3-[4-(difluoromethanesulfonamido)-3-[(1S)-1-(4-fluorophenyl)ethoxy]phenyl]-1-methyl-1H-pyrazolo[4,3-c]pyridin-7-yl}-1H-pyrazol-1-yl)nonyl]oxy}-4-(4-methyl-1,3-thiazol-5-yl)phenyl)methyl]-1-[(2S)-2-[(1-fluorocyclopropyl)formamido]-3,3-dimethylbutanoyl]-4-hydroxypyrrolidine-2-carboxamide]	–
6.00 to 8.00	< 1	1 to 10	Cc1ncsc1-c1ccc(CNC(=O)[C@@H]2C[C@@H](O)CN2C(=O)[C@@H](NC(=O)CCCCCOc2ccc(-c3cnc(N)c4c(-c5ccc(NS(=O)(=O)C(F)F)c(O[C@@H](C)c6ccc(F)cc6)c5)nn(C)c34)cn2)C(C)(C)C)cc1 [Compound 1050, (2S,4R)-1-[(2S)-2-{6-[(5-{4-amino-3-[4-(difluoromethanesulfonamido)-3-[(1S)-1-(4-fluorophenyl)ethoxy]phenyl]-1-methyl-1H-pyrazolo[4,3-c]pyridin-7-yl}pyridin-2-yl)oxy]hexanamido}-3,3-dimethylbutanoyl]-4-hydroxy-N-{[4-(4-methyl-1,3-thiazol-5-yl)phenyl]methyl}pyrrolidine-2-carboxamide]	–
6.00 to 8.00	1 to 10	–	Cc1ncsc1-c1ccc(CNC(=O)[C@@H]2C[C@@H](O)CN2C(=O)[C@@H](NC(=O)CCCCCCC#Cc2cnc(N)c3c(-c4ccc(NS(=O)(=O)C(F)F)c(F)c4)nn(C)c23)C(C)(C)C)cc1 [Compound 1052, (2S,4R)-1-[(2S)-2-(9-{4-amino-3-[4-(difluoromethanesulfonamido)-3-fluorophenyl]-1-methyl-1H-pyrazolo[4,3-c]pyridin-7-yl}non-8-ynamido)-3,3-dimethylbutanoyl]-4-hydroxy-N-{[4-(4-methyl-1,3-thiazol-5-yl)phenyl]methyl}pyrrolidine-2-carboxamide]	–
> 8.00	< 1	–	Cc1ncsc1-c1ccc(CNC(=O)[C@@H]2C[C@@H](O)CN2C(=O)[C@@H](NC(=O)COCCOCC#Cc2cnc(N)c3c(-c4ccc(NS(=O)(=O)C(F)F)c(O[C@@H](C)c5ccc(F)cc5)c4)nn(C)c23)C(C)(C)C)cc1 [Compound 1075, (2S,4R)-1-[(2S)-2-(2-{2-[(3-{4-amino-3-[4-(difluoromethanesulfonamido)-3-[(1S)-1-(4-fluorophenyl)ethoxy]phenyl]-1-methyl-1H-pyrazolo[4,3-c]pyridin-7-yl}prop-2-yn-1-yl)oxy]ethoxy}acetamido)-3,3-dimethylbutanoyl]-4-hydroxy-N-{[4-(4-methyl-1,3-thiazol-5-yl)phenyl]methyl}pyrrolidine-2-carboxamide]	–
> 8.00	< 1	–	CN[C@@H](C)C(=O)N[C@H](C(=O)N1C[C@H](NC(=O)CCCCCCn2cc(-c3cnc(N)c4c(-c5ccc(NS(=O)(=O)C(F)F)c(O[C@@H](C)c6ccc(F)cc6)c5)nn(C)c34)cn2)C[C@H]1C(=O)Nc1c(F)cccc1F)C(C)(C)C [Compound 1101, (2S)-4-[7-(4-{4-amino-3-[4-(difluoromethanesulfonamido)-3-[(1S)-1-(4-fluorophenyl)ethoxy]phenyl]-1-methyl-1H-pyrazolo[4,3-c]pyridin-7-yl}-1H-pyrazol-1-yl)heptanamido]-N-(2,6-difluorophenyl)-1-[(2S)-3,3-dimethyl-2-[(2S)-2-(methylamino)propanamido]butanoyl]pyrrolidine-2-carboxamide]	–

Second part, the compound before the results:

Compound	pKd (human MLKL (full length))	DC50 (endogenous MLKL in U937) [µM]	DC50 (endogenous MLKL in MDF) [µM]	pIC50 [1]
Cc1ncsc1-c1ccc(CNC(=O)[C@@H]2C[C@@H](O)CN2C(=O)[C@@H](NC(=O)COCCCCn2cc(-c3cnc(N)c4c(-c5ccc(NS(=O)(=O)C(F)F)c(O[C@@H](C)c6ccc(F)cc6)c5)nn(C)c34)cn2)C(C)(C)C)cc1 [Compound 1056, (2S,4R)-1-[(2S)-2-{2-[4-(4-{4-amino-3-[4-(difluoromethanesulfonamido)-3-[(1S)-1-(4-fluorophenyl)ethoxy]phenyl]-1-methyl-1H-pyrazolo[4,3-c]pyridin-7-yl}-1H-pyrazol-1-yl)butoxy]acetamido}-3,3-dimethylbutanoyl]-4-hydroxy-N-{[4-(4-methyl-1,3-thiazol-5-yl)phenyl]methyl}pyrrolidine-2-carboxamide]	6.00 to 8.00	< 1	1 to 10	–
C[C@H](Oc1cc(-c2nn(C)c3c(-c4cnn(C5CCN(C(=O)C6CCCN(c7cccc8c7C(=O)N(C7CCC(=O)NC7=O)C8=O)C6)CC5)c4)cnc(N)c23)ccc1NS(=O)(=O)C(F)F)c1ccc(F)cc1 (stereo partly drawn) [Compound 1077, N-(4-{4-amino-7-[1-(1-{1-[2-(2,6-dioxopiperidin-3-yl)-1,3-dioxo-2,3-dihydro-1H-isoindol-4-yl]piperidine-3-carbonyl}piperidin-4-yl)-1H-pyrazol-4-yl]-1-methyl-1H-pyrazolo[4,3-c]pyridin-3-yl}-2-[(1S)-1-(4-fluorophenyl)ethoxy]phenyl)-1,1-difluoromethane-sulfonamide]	–	1 to 10	–	5.00 to 6.00
C[C@H](Oc1cc(-c2nn(C)c3c(C#CCCCCCCNC(=O)COc4cccc5c4C(=O)N(C4CCC(=O)NC4=O)C5=O)cnc(N)c23)ccc1NS(=O)(=O)C(F)F)c1ccc(F)cc1 (stereo partly drawn) [Compound 1097, N-(8-{4-amino-3-[4-(difluoromethanesulfonamido)-3-[(1S)-1-(4-fluorophenyl)ethoxy]phenyl]-1-methyl-1H-pyrazolo[4,3-c]pyridin-7-yl}oct-7-yn-1-yl)-2-{[2-(2,6-dioxopiperidin-3-yl)-1,3-dioxo-2,3-dihydro-1H-isoindol-4-yl]oxy}acetamide]	> 8.00	< 1	–	–
(2S,4R)-1-[(2S)-2-(9-{4-amino-3-[4-(difluoromethanesulfonamido)-3-fluorophenyl]-1-methyl-1H-pyrazolo[4,3-c]pyridin-7-yl}non-8-ynamido)-3,3-dimethylbutanoyl]-4-hydroxy-N-{[4-(4-methyl-1,3-thiazol-5-yl)phenyl]methyl}pyrrolidine-2-carboxamide [Compound 1046]	–	< 1	–	–
